The values below come from patent US20210253598A1, “ARYL ANNULATED MACROCYCLIC INDOLE DERIVATIVES” (priority 2017, published 2021).

The conditions of data set [1]: the molecule shown is the open-chain precursor; crosslinker bond; 11-membered ring; 2,3-bis(chloromethyl)pyridine HCl/Cs2CO3/NaI; MeCN; 73.1 mM; 75.0 °C.
The subject of data set [2] is SUDHL5. Kind of data set: Induction of caspase-3/7 activity in SUDHL5 cells (Assay 4). Particulars: SUDHL5, 3 hours treatment, Caspase-Glo 3/7, median, read-out: Caspase SUDHL5 [M] (median). In kind it is cell-based. The gist of the method:
(§1)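 DLBCL lines SUDHL5 and SUDHL10 were treated with compound for 3 h at 37 °C. Caspase-3/7 activity was then read by Caspase-Glo 3/7 luminescence after 1 h at 37 °C. Medium-only background was subtracted and values were normalized to the mean of DMSO-treated cells.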

For data set [3], the system named is HMC-1-8. Nature of the data set: Anti-proliferative effect in HMC-1-8 cells, CellTiter-Glo (Assay 7). The class given is cell-based. The following applies: HMC-1-8, 72 hours incubation, read-out: Antiproli HMC-1-8. Here is the method:
(§2) Assessment of the Anti-Proliferative Effect of Compounds in Different Cell Lines
(§3) The impact of compounds on the proliferation of different cell lines was assessed using the CellTiter-Glo® Luminescent Cell Viability reagent from Promega (G7573).
(§4) In parallel, cells were plated in a reference (day 0) plate for time zero determination. Cells were incubated in a humidified incubator at 37° C. overnight.
(§5) Rim wells were excluded. The cells were incubated for 72 hours in a humidified incubator at 37° C. The day 0 plate was measured by adding 30 μL/well of CTG solution (CellTiter-Glo® Luminescent Cell Viability reagent, Promega G7573) to time zero wells in the reference plate followed by a 10 minutes incubation and luminescence reading at 0.1 ms. using the PHERAstar FS microplate reader (BMG Labtech).
(§6) After 72 hours incubation, the treated plates were measured in the same way as the day 0 plate mentioned above. The Bella DRC Master Sheet was used to calculate IC50s, with CI=day 0 values and C0=DMSO control values.
For orientation: ATP-based viability assays read luminescence as a measure of living cells.

Data set [4] has as its system SUDHL10. Kind of data set: Induction of caspase-3/7 activity in SUDHL10 cells (Assay 4). The class given is cell-based. Particulars: SUDHL10, 3 hours treatment, Caspase-Glo 3/7, median, read-out: Caspase SUDHL10 [M] (median). The gist of the method: as §1
For data set [5], the system named is SUDHL10. Kind of data set: Induction of cytotoxicity in SUDHL10 cells, CellTiter-Glo (Assay 6). In kind it is cell-based. Particulars: SUDHL10, 5 hours incubation, median, read-out: Cytotox SUDHL10 [M] (median). The gist of the method: (§7)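 Viability of treated lymphoma cells is measured by luminescence with CellTiter-Glo reagent, incubated 15 minutes at room temperature. Compound exposure lasts 5 hours at 37° C.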

The target in data set [6] is BCL-XL (Homo sapiens, UniProt Q07817). Kind of data set: Protein-protein interaction assay BCL-XL/Bad BH3 peptide, TR-FRET (BCL-XL assay, Assay 2). In kind it is binding. Particulars: His-BCL-XL / Bad BH3 peptide, median. On the technique in general: Time-resolved FRET reads energy transfer from a long-lived donor to a nearby acceptor.
Sequence of BCL-XL (Q07817 1-212): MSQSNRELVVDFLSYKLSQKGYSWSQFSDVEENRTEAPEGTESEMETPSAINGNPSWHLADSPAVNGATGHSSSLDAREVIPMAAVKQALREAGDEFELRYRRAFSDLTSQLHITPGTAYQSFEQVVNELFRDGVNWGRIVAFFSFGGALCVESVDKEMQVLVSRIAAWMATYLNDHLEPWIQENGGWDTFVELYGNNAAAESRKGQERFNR
Data set [7] relates to AMO-1. Nature of the data set: Anti-proliferative effect in AMO-1 cells, CellTiter-Glo (Assay 7). The class given is cell-based. Particulars: AMO-1, 72 hours incubation, CellTiter-Glo, several values per example, read-out: Antiproli AMO-1. In short, it runs like this:
(§8)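 CellTiter-Glo luminescence after 72 h compound exposure at 37 °C; a parallel time-zero plate was read the same way. IC50 derived relative to day 0 signal and DMSO control.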

Data set [8] concerns MV-4-11. Nature of the data set: Anti-proliferative effect in MV-4-11 cells, CellTiter-Glo (Assay 7). The class given is cell-based. The following applies: MV-4-11, 72 hours incubation, CellTiter-Glo, several values per example, read-out: Antiproli MV-4-11. The gist of the method: as §8
The target in data set [9] is BCL-2 (Homo sapiens, UniProt P10415). Nature of the data set: Protein-protein interaction assay BCL-2/Bad BH3 peptide, TR-FRET (BCL-2 assay, Assay 3). Particulars: His-BCL-2 / Bad BH3 peptide, median. In kind it is binding.
Sequence of BCL-2 (P10415 1-211): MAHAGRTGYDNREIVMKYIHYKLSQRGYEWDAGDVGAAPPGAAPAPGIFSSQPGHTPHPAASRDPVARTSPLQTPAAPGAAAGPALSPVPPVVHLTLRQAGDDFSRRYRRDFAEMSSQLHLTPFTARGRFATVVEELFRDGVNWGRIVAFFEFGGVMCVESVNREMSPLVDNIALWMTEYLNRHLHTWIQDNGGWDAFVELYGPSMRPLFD
Method: The dose-dependent inhibition by the compounds described in this invention of the interaction between BCL-2 and the BH3 domain of Bad (both human) was determined using a steady state binding competition assay with time-resolved fluorescence energy transfer (TR-FRET) readout. For that purpose BCL-2 (amino acids 1-211, C-terminal fused to a hexahistidine (6×His) tag (SEQ ID 5) and a synthetic Bad BH3-derived peptide of sequence Biotin-PEG2-PEG2-[sequence]-Nle-[sequence]-amide (SEQ ID 4) served as protein receptor and tracer ligand respectively. The recombinant BCL-2 protein (expressed in E. coli) was purchased from BPS Bioscience (San Diego, Calif., USA). The Bad BH3-derived peptide can be obtained from e.g. Biosyntan (Berlin, Germany).
For that, 100-fold concentrated DMSO solutions were prepared by serial dilutions (1:3.4) of a 2 mM stock solution in a clear, 384-well microtiter plate (Greiner Bio-One, Frickenhausen, Germany). From there, 50 nl were transferred in a dark test plate (Greiner Bio-One, Frickenhausen, Germany). The assay was initiated by addition of 2 μl of a 2,5-fold concentrated His-BCL-2 solution (usually for a 1 nM end concentration in 5 μl reaction volume) in aqueous assay buffer [50 mM Tris/HCl pH 7, 100 mM sodium chloride (NaCl), 50 mM potassium fluoride (KF), 0.005% Tween-20, 2 mM DTT, 0.1% bovine gamma globulin (BGG)] to the compounds in the assay plate. This was followed by a 10-minute incubation step at 22° C. for pre-equilibration of the putative complex between His-BCL-2 and the compounds.
The mixture was incubated in the dark for one hour at 22° C. and then overnight at 4° C. The formation of BCL-2/Bad complexes was determined by measuring the resonance energy transfer of the anti-His-Eu-cryptate antibody to the streptavidin-XL665 present in the reaction. For that purpose, the fluorescence emission at 620 nm and 665 nm after excitation at 330-350 nm was measured in a TR-FRET measuring instrument, for instance a Rubystar or a Pherastar (both from BMG Lab Technologies, Offenburg, Germany) or a Viewlux (Perkin-Elmer). The ratio of the emission at 665 nm and at 622 nm was used as indicator of the amount of BCL-2/Bad complexes present.
The resulting data (ratio) were normalized, taking 0% inhibition as the mean value of control measurements (usually 32 data points) where all reagents were included. In this case 50 nl DMSO were used instead of compounds. […] IC50 values were determined by regression analysis based on a 4 parameter equation (minimum, maximum, IC50, Hill; Y=Max+(Min−Max)/(1+(X/IC50)^Hill) using the Screener Software (Genedata).
The conditions of data set [10]: 11-membered ring.
For data set [11] the following is noted: the molecule shown is the open-chain precursor; crosslinker bond; 11-membered ring; 2,3-bis(chloromethyl)pyrazine/Cs2CO3/NaI; MeCN; 9.09 mM; 70.0 °C.
For data set [12], the target named is MCL-1 (Homo sapiens, UniProt Q07820, K194A/K197A/R201A). Kind of data set: Protein-protein interaction assay MCL-1/Noxa BH3 peptide, TR-FRET (MCL-1 assay, Assay 1). In kind it is binding. The following applies: MCL-1 Assay [M] (median), MBP-MCL-1 / Noxa BH3 peptide. The gist of the method:
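Human MBP-fused MCL-1 (aa 173-321; 1 nM final) was pre-incubated 10 min at 22 °C with compound in pH 7 Tris buffer containing NaCl, KF, Tween-20, DTT and BGG. Displacement of biotinylated Noxa BH3 peptide was read by TR-FRET (anti-MBP-Eu cryptate/streptavidin-XL665) after 1 h at 22 °C plus overnight at 4 °C. IC50 came from four-parameter fits against DMSO controls.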

Data set [13] deals with SUDHL5. Nature of the data set: Induction of cytotoxicity in SUDHL5 cells, CellTiter-Glo (Assay 6). The following applies: SUDHL5, 5 hours incubation, median, read-out: Cytotox SUDHL5 [M] (median). The class given is cell-based. The gist of the method:
as §7

In data set [14] the test system is A2780. Nature of the data set: Anti-proliferative effect in A2780 cells, CellTiter-Glo (Assay 7). The class given is cell-based. Particulars: Homo sapiens, A2780, 72 h, A2780, 72 hours incubation, CellTiter-Glo; several values per example; read-out: Antiproli A2780. In short, it runs like this:
as §8

For data set [15], the system named is SUDHL5. Nature of the data set: Anti-proliferative effect in SUDHL5 cells, CellTiter-Glo (Assay 7). The class given is cell-based. The following applies: SUDHL5, 72 hours incubation, CellTiter-Glo, median, read-out: Antiproli SUDHL5 [M] (median). The gist of the method:
as §8

In data set [16] the test system is SUDHL10. Nature of the data set: Anti-proliferative effect in SUDHL10 cells, CellTiter-Glo (Assay 7). The class given is cell-based. Particulars: Homo sapiens, SU-DHL10, SUDHL10, 72 hours incubation, median, read-out: Antiproli SUDHL10 [M] (median). On the procedure:
as §2, §3, §4, §5, §6

Several values for one entry are separate records, joined by “and”; a condition that tells them apart may be missing. Equal entries are not always repeated. Where two headings read alike, the source gives them in different places.

Sequence of MCL-1 (Q07820 173-321 K194A/K197A/R201A, looked up): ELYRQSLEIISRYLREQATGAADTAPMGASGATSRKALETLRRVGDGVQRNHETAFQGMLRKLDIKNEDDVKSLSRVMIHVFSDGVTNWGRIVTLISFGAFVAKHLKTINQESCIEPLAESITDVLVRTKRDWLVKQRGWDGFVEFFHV

`CCOC(=O)c1c(CCCOc2cccc3ccccc23)c2cccc3c2n1Cc1ccccc1CNCc1nn(C)c(C)c1-3` registered a ring closure, yield of all isomers (from CCOC(=O)c1c(CCCOc2cccc3ccccc23)c2cccc(-c3c(CBr)nn(C)c3C)c2n1Cc1ccccc1CN, amine bond, cesium carbonate, acetonitrile, 30.6 mM, 50.0 °C, 15.0 h) of 47.3%.
As for `CCOC(=O)c1[nH]c2c(-c3c(CO)nn(C)c3C)cccc2c1CCCOc1cccc2ccccc12`, the ring closure, yield after HPLC in [1] is 20% and 30%.
Take `Cc1c2c(nn1C)COCc1nccnc1Cn1c(C(=O)O)c(CCCOc3cccc4ccccc34)c3ccc(Cl)c-2c31` (single isomer, unassigned; enantiomer 1) [Example 46, 3-Chloro-4,5-dimethyl-17-{3-[(naphthalen-1-yl)oxy]propyl}-5,7,9,14-tetrahydropyrazino-[2′,3′:3,4]pyrazolo[4′,3′:9,10][1,6]oxazacycloundecino[8,7,6-hi]indole-16-carboxylic Acid (Enantiomer 1)]: the EC50 in [2] was 1.8e-06 M; in data set [4], 7.3e-06 M. Besides, the IC50 in data set [3] (72 h) was 11.9 µM; in data set [5] it was 7e-06 M; in data set [6], greater than 20 µM; in data set [7] (Homo sapiens, AMO1, 72 h) it was 6.15 µM; in data set [8], 5.27 µM; in data set [9], greater than 20 µM.
As to `CCOC(=O)c1c(CCCOc2cccc3ccccc23)c2ccc(Cl)c3c2n1Cc1ccccc1COCc1nn(C)c(C)c1-3`, the ring closure, isolated yield in [10] (from CCOC(=O)c1c(CCCOc2cccc3ccccc23)c2ccc(Cl)c(-c3c(CO)nn(C)c3C)c2n1Cc1ccccc1CBr, ether bond, NaH/di-tert-butyl imidodicarbonate, THF, 29.9 mM, […]) was found to be 76%. Further, for the setting “from CCOC(=O)c1c(CCCOc2cccc3ccccc23)c2ccc(Cl)c(-c3c(CO)nn(C)c3C)c2n1Cc1ccccc1CBr, ether bond, sodium hydride / di-tert-butyl imidodicarbonate, THF, 29.9 mM, […], 72.0 h”, the ring closure, yield of all isomers was determined as 76%.
`CCOC(=O)c1[nH]c2c(-c3c(CO)nn(C)c3C)c(Cl)ccc2c1CCCOc1cccc2cc(F)ccc12`: the ring closure, isolated yield in data set [10] (the molecule shown is the open-chain precursor, crosslinker bond, 1,2-bis(bromomethyl)benzene/Cs2CO3, MeCN/THF 2:1, 24.3 mM, 80.0 °C) is 74%. This compound also showed a ring closure, crude yield in data set [11] of 90%.
As for `Cc1c2c(nn1C)COCc1nccnc1Cn1c(C(=O)O)c(CCCOc3cccc4cc(F)ccc34)c3ccc(Cl)c-2c31` (racemic) [Example 93, (rac)-3-Chloro-17-{3-[(6-fluoronaphthalen-1-yl)oxy]propyl}-4,5-dimethyl-5,7,9,14-tetrahydropyrazino[2′,3′:3,4]pyrazolo[4′,3′:9,10][1,6]oxazacycloundecino[8,7,6-hi]indole-16-carboxylic Acid], the IC50 in [12] was 1.5e-09 M; in [13] (Homo sapiens, SU-DHL-5, 5 h), 2.8e-06 M; in data set [3] (72 h), 32 µM; in [5] (Homo sapiens, SU-DHL10, 5 h), 6.7e-06 M; in data set [14], greater than 33 µM; in data set [15] (Homo sapiens, SU-DHL-5, 72 h), 2.5e-06 M. For the same compound, the IC50 in data set [6] was greater than 20 µM; in data set [7] (Homo sapiens, AMO1, 72 h), 7.19 µM; in [8] (Homo sapiens, MV4-11, 72 h) it was 15.1 µM; in data set [9] it was greater than 20 µM. The EC50 amounted to 2.5e-06 M in data set [2] (Homo sapiens, SU-DHL-5, 3 h) and 1e-05 M in [4] (Homo sapiens, SU-DHL10, 3 h).
As to `Cc1c2c(nn1C)COCc1nccnc1Cn1c(C(=O)O)c(CCCOc3cccc4ccccc34)c3ccc(Cl)c-2c31` (single isomer, unassigned; enantiomer 2) [Example 47, 3-Chloro-4,5-dimethyl-17-{3-[(naphthalen-1-yl)oxy]propyl}-5,7,9,14-tetrahydropyrazino-[2′,3′:3,4]pyrazolo[4′,3′:9,10][1,6]oxazacycloundecino[8,7,6-hi]indole-16-carboxylic Acid (Enantiomer 2)], the IC50 in data set [13] worked out at 4.8e-06 M; in [3] it was 16.1 µM; in [5] it was 1.9e-05 M; in data set [15] it was 4.6e-06 M; in data set [7] it was 11.5 µM; in data set [8] it was 11.7 µM. Besides, the EC50 is 4.7e-06 M in data set [2] and 1.6e-05 M in data set [4].
On to `CCOC(=O)c1c(CCCOc2cccc3cc(F)ccc23)c2ccc(Cl)c3c2n1Cc1ccccc1COCc1c-3c(CC)nn1CCN1CCOCC1`, for which the ring closure, isolated yield in data set [10] (from CCOC(=O)c1c(CCCOc2cccc3cc(F)ccc23)c2ccc(Cl)c(-c3c(CC)nn(CCN4CCOCC4)c3CO)c2n1Cc1ccccc1CBr, ether bond, NaH/di-tert-butyl imidodicarbonate, DMF, 56.1 mM, […]) turned out to be 10%. The same compound yielded a ring closure, yield of all isomers (from CCOC(=O)c1c(CCCOc2cccc3cc(F)ccc23)c2ccc(Cl)c(-c3c(CC)nn(CCN4CCOCC4)c3CO)c2n1Cc1ccccc1CBr, ether bond, NaH / di-tert-butyl imidodicarbonate, DMF, 56.1 mM, 50.0 °C, […]) of 10%.
With `CCc1c2c(nn1C)COCc1ccccc1Cn1c(C(=O)O)c(CCCOc3cccc4c3CCC4)c3ccc(F)c-2c31` (racemic) [Example 78, (rac)-1-(3-((2,3-Dihydro-1H-inden-4-yl)oxy)propyl)-14-ethyl-15-fluoro-13-methyl-4,9,11,13-tetrahydrobenzo[3,4]pyrazolo[4′,3′:9,10][1]oxa[6]azacycloundecino[8,7,6-hi]indole-2-carboxylic], the IC50 in data set [12] is 1.9e-09 M; in [13] (Homo sapiens, SU-DHL-5, 5 h), 2.1e-06 M; in [5] (Homo sapiens, SU-DHL10, 5 h) it was 3.7e-06 M; in data set [14], 5.04 µM; in data set [15] (Homo sapiens, SU-DHL-5, 72 h), 3.3e-06 M; in [6] it was greater than 20 µM. In addition, the IC50 in [7] is 6.82 µM; in data set [7] (Homo sapiens, AMO1, 72 h), 6.61 µM; in [16], 1.9e-06 M; in [9], greater than 20 µM. Further, the EC50 in data set [2] (Homo sapiens, SU-DHL-5, 3 h) stood at 2.1e-06 M; in data set [4] (Homo sapiens, SU-DHL10, 3 h), 5.2e-06 M.
